Results: PubChem BioAssay (NCI)
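All cell lines were grown in 96-well plates and treated with compound for 48 hours. The concentration for full growth arrest is given as TGI.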

Experiments:
Test in all cases: NCI tumour cell line growth inhibition, 48 h
M19-MEL melanoma = test system: M19-MEL melanoma
SF-539 CNS = test system: SF-539 CNS
XF 498 CNS = test system: XF 498 CNS
EKVX NSCLC = test system: EKVX NSCLC
HOP-18 NSCLC = test system: HOP-18 NSCLC
HCT-116 colon = test system: HCT-116 colon
COLO 205 colon = test system: COLO 205 colon
DMS 114 small cell lung = test system: DMS 114 small cell lung
786-0 renal = test system: 786-0 renal
CCRF-CEM leukemia = test system: CCRF-CEM leukemia
SW-620 colon = test system: SW-620 colon
M14 melanoma = test system: M14 melanoma
SN12C renal = test system: SN12C renal
SK-MEL-2 melanoma = test system: SK-MEL-2 melanoma
SK-OV-3 ovarian = test system: SK-OV-3 ovarian
HL-60(TB) leukemia = test system: HL-60(TB) leukemia
DMS 273 small cell lung = test system: DMS 273 small cell lung
TK-10 renal = test system: TK-10 renal
SNB-78 CNS = test system: SNB-78 CNS
HT29 colon = test system: HT29 colon
SNB-75 CNS = test system: SNB-75 CNS
MALME-3M melanoma = test system: MALME-3M melanoma
ACHN renal = test system: ACHN renal
A498 renal = test system: A498 renal
IGROV1 ovarian = test system: IGROV1 ovarian
UO-31 renal = test system: UO-31 renal
MOLT-4 leukemia = test system: MOLT-4 leukemia
OVCAR-5 ovarian = test system: OVCAR-5 ovarian
NCI-H522 lung = test system: NCI-H522 lung
K-562 leukemia = test system: K-562 leukemia
UACC-62 melanoma = test system: UACC-62 melanoma
HCC-2998 colon = test system: HCC-2998 colon
UACC-257 melanoma = test system: UACC-257 melanoma
NCI-H460 lung = test system: NCI-H460 lung
DLD-1 colon = test system: DLD-1 colon
SK-MEL-5 melanoma = test system: SK-MEL-5 melanoma
HOP-92 NSCLC = test system: HOP-92 NSCLC
A549 NSCLC = test system: A549 NSCLC
OVCAR-4 ovarian = test system: OVCAR-4 ovarian
SNB-19 CNS = test system: SNB-19 CNS
NCI-H23 lung = test system: NCI-H23 lung
KM12 colon = test system: KM12 colon
OVCAR-3 ovarian = test system: OVCAR-3 ovarian
SK-MEL-28 melanoma = test system: SK-MEL-28 melanoma
RXF 393 renal = test system: RXF 393 renal
OVCAR-8 ovarian = test system: OVCAR-8 ovarian
U251 CNS = test system: U251 CNS
HOP-62 NSCLC = test system: HOP-62 NSCLC
SF-295 CNS = test system: SF-295 CNS
RPMI-8226 leukemia = test system: RPMI-8226 leukemia
SR leukemia = test system: SR leukemia
LXFL 529 NSCLC = test system: LXFL 529 NSCLC
KM20L2 colon = test system: KM20L2 colon
NCI-H226 lung = test system: NCI-H226 lung
HCT-15 colon = test system: HCT-15 colon
CAKI-1 renal = test system: CAKI-1 renal
SF-268 CNS = test system: SF-268 CNS
LOX IMVI melanoma = test system: LOX IMVI melanoma

Measured: TGI

Cc1cccc(C)c1NC(=O)C(=O)C(C#N)c1ccccc1Cl (centres undefined)
not listed: LOX IMVI melanoma
> 100 µM: all other assays above

O=C1OC2C(O)COC2(O)C1(O)Cc1c[nH]c2ccccc12 (centres undefined)
not listed: ACHN renal | HCC-2998 colon | SK-MEL-28 melanoma
> 100 µM: all other assays above

Cc1cccc(C)c1NC(=O)CCC(=O)CC(=O)C(C)C
not listed: LOX IMVI melanoma
> 100 µM: all other assays above
